What was measured:
Experiment in all cases: KINOMEscan
Type in all cases: binding
Conditions in all cases: 2000 nM
[1] = target: ABL1(F317I)-phosphorylated (Homo sapiens, UniProt P00519, F317I)
NIK = target: T1, NIK (Homo sapiens, UniProt Q99558)
T1 construct: DNA label (qPCR read-out); purchased KINOMEscan (ScanMAX panel service)

PIM3 = target: T2, PIM3 (Homo sapiens, UniProt Q86V86)
T2 construct: DNA label (qPCR read-out); purchased KINOMEscan (DiscoveRx) panel

PIP5K2C = target: T3, PIP5K2C (Homo sapiens, UniProt Q8TBX8)
T3 construct: DNA label (qPCR read-out); purchased KINOMEscan (DiscoveRx) panel

[2] = target: T4, RSK4(Kin.Dom.2-C-terminal) (Homo sapiens, UniProt Q9UK32)
T4 construct: RSK4(Kin.Dom.2); purchased DiscoveRx (KINOMEscan scanMAX panel)

PIK3CA(H1047Y) = target: T5, PIK3CA(H1047Y) (Homo sapiens, UniProt P42336, H1047Y)
T5 construct: DNA label; purchased DiscoveRx (KINOMEscan scanMAX panel)

[3] = target: T6, ABL1(F317I)-nonphosphorylated (Homo sapiens, UniProt P00519, F317I)
T6 construct: DNA label (qPCR read-out); purchased DiscoverX (KINOMEscan service)
T6 sequence (P00519 whole entry F317I): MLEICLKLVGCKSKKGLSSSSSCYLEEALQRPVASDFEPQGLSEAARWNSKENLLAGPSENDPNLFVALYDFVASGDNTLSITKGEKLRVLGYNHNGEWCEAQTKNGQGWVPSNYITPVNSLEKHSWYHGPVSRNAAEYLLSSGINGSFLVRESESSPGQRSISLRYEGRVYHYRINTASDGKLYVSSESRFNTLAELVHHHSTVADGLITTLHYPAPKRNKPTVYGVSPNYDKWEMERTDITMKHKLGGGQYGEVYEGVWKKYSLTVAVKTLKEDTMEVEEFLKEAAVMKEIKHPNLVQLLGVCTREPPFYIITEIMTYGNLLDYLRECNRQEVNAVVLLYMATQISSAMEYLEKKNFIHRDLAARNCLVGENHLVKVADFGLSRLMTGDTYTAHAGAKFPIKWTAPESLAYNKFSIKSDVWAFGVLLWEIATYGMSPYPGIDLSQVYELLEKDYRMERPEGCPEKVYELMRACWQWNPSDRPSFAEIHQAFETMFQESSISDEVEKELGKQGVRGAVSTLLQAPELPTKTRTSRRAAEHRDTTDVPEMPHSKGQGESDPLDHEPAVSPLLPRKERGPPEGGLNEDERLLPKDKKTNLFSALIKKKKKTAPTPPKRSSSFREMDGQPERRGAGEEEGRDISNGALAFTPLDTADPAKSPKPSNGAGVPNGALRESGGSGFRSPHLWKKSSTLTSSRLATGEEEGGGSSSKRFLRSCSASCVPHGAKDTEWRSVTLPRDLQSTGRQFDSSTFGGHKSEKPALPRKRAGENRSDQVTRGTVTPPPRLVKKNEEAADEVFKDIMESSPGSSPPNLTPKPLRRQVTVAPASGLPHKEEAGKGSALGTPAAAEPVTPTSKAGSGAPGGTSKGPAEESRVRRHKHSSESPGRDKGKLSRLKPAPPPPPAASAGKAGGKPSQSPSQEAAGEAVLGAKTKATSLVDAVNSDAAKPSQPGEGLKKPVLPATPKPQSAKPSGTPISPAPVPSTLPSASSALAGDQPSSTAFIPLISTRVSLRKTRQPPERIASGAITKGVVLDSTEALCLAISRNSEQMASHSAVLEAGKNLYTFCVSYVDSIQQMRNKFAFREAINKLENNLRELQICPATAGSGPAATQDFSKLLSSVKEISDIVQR

AURKB = target: T7, AURKB (Homo sapiens, UniProt Q96GD4)
T7 construct: DNA label (qPCR read-out); purchased KINOMEscan scanMAX panel (DiscoveRx)

BIKE = target: T8, BIKE (Homo sapiens, UniProt Q9NSY1)
T8 construct: DNA label (qPCR read-out); purchased KINOMEscan scanMAX panel (DiscoveRx)

MAP4K5 = MAP4K5 (Homo sapiens, UniProt Q9Y4K4)
FRK = target: T9, FRK (Homo sapiens, UniProt P42685)
T9 construct: purchased KINOMEscan (DiscoveRx)

FLT1 = target: T10, FLT1 (Homo sapiens, UniProt P17948)
T10 construct: purchased DiscoveRx (KINOMEscan scanMAX panel)

RIPK4 = target: T11, RIPK4 (Homo sapiens, UniProt P57078)
T11 construct: DNA label (qPCR read-out); purchased DiscoveRx (KINOMEscan ScanMAX panel)

CAMK2D = target: T12, CAMK2D (Homo sapiens, UniProt Q13557)
T12 construct: DNA label (qPCR read-out); purchased KINOMEscan (ScanMAX panel service)

ERBB4 = target: T13, ERBB4 (Homo sapiens, UniProt Q15303)
T13 construct: DNA label (qPCR read-out); purchased DiscoveRx (KINOMEscan ScanMAX panel)

[4] = target: T14, ABL1(E255K)-phosphorylated (Homo sapiens, UniProt P00519, E255K)
T14 construct: DNA label (qPCR read-out); purchased DiscoverX (KINOMEscan service)
T14 sequence (P00519 whole entry E255K): as the sequence (P00519 whole entry F317I) above, with E255K, I317F counted along it

CASK = target: T15, CASK (Homo sapiens, UniProt O14936)
T15 construct: DNA label (qPCR read-out); purchased KINOMEscan (ScanMAX panel service)

DRAK1 = target: T16, DRAK1 (Homo sapiens, UniProt Q9UEE5)
T16 construct: DNA label (qPCR read-out); purchased KINOMEscan (DiscoveRx) panel

SRC = target: T17, SRC (Homo sapiens, UniProt P12931)
T17 construct: purchased KINOMEscan (DiscoveRx)

MYLK = target: T18, MYLK (Homo sapiens, UniProt Q15746)
T18 construct: DNA label (for qPCR read-out); purchased KINOMEscan scanMAX panel (DiscoveRx)

TAK1 = target: T19, TAK1 (Homo sapiens, UniProt O43318)
T19 construct: DNA label (for qPCR read-out); purchased DiscoveRx (KINOMEscan scanMAX panel, contract assay)
T19 sequence (O43318 whole entry): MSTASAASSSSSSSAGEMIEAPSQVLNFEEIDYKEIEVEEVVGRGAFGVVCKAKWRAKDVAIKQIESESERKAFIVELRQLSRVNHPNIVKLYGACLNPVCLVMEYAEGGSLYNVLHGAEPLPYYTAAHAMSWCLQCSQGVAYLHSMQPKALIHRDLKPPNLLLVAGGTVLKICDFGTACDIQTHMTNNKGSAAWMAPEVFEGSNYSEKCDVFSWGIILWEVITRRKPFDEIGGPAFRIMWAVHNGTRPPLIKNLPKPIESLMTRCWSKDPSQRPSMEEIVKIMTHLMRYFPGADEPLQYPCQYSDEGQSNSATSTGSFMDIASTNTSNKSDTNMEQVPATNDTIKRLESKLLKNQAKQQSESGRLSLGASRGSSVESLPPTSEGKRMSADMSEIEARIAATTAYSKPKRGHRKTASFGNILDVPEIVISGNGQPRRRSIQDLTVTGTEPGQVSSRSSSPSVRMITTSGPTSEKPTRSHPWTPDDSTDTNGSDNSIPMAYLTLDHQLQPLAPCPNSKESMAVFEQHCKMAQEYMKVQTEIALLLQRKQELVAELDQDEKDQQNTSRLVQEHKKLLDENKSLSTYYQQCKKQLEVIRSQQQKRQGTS

OSR1 = target: T20, OSR1 (Homo sapiens, UniProt O95747)
T20 construct: purchased DiscoverX (KINOMEscan service)

[5] = target: T21, JAK2(JH1domain-catalytic) (Homo sapiens, UniProt O60674)
T21 construct: JAK2(JH1domain-catalytic); DNA label (for qPCR read-out); purchased DiscoveRx (KINOMEscan scanMAX panel)

[6] = target: T22, TYK2(JH2domain-pseudokinase) (Homo sapiens, UniProt P29597)
T22 construct: JH2domain; DNA label (for qPCR read-out); purchased DiscoveRx (KINOMEscan scanMAX panel)

MAP4K2 = MAP4K2 (Homo sapiens, UniProt Q12851)
SRMS = target: T23, SRMS (Homo sapiens, UniProt Q9H3Y6)
T23 construct: purchased KINOMEscan (DiscoveRx)

IKK-epsilon = target: T24, IKK-epsilon (Homo sapiens, UniProt Q14164)
T24 construct: DNA label (qPCR read-out); purchased KINOMEscan (DiscoveRx) ScanMAX panel
T24 sequence (Q14164 whole entry): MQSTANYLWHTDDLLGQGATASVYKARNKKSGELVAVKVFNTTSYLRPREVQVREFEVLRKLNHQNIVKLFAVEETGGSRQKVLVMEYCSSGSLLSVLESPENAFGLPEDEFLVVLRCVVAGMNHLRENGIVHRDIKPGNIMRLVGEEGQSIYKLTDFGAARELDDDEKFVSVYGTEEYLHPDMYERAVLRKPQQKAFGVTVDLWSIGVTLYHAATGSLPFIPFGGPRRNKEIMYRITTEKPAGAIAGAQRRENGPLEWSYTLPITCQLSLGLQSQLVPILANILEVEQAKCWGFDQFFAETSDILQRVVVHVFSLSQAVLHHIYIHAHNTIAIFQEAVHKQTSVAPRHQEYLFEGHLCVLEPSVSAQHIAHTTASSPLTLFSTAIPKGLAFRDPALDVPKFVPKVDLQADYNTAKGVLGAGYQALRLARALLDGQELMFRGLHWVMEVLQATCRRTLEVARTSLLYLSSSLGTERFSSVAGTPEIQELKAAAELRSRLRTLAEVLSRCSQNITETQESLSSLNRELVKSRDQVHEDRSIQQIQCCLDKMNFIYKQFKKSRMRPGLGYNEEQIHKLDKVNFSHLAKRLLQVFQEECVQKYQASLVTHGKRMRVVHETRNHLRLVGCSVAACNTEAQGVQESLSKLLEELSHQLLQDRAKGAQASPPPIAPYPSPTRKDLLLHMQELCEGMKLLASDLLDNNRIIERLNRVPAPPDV

TRKC = target: T25, TRKC (Homo sapiens, UniProt Q16288)
T25 construct: DNA label (qPCR read-out); purchased KINOMEscan (DiscoveRx) ScanMAX panel

MAP3K1 = target: T26, MAP3K1 (Homo sapiens, UniProt Q13233)
T26 construct: DNA label (qPCR read-out); purchased DiscoverX (KINOMEscan service)
T26 sequence (Q13233 whole entry): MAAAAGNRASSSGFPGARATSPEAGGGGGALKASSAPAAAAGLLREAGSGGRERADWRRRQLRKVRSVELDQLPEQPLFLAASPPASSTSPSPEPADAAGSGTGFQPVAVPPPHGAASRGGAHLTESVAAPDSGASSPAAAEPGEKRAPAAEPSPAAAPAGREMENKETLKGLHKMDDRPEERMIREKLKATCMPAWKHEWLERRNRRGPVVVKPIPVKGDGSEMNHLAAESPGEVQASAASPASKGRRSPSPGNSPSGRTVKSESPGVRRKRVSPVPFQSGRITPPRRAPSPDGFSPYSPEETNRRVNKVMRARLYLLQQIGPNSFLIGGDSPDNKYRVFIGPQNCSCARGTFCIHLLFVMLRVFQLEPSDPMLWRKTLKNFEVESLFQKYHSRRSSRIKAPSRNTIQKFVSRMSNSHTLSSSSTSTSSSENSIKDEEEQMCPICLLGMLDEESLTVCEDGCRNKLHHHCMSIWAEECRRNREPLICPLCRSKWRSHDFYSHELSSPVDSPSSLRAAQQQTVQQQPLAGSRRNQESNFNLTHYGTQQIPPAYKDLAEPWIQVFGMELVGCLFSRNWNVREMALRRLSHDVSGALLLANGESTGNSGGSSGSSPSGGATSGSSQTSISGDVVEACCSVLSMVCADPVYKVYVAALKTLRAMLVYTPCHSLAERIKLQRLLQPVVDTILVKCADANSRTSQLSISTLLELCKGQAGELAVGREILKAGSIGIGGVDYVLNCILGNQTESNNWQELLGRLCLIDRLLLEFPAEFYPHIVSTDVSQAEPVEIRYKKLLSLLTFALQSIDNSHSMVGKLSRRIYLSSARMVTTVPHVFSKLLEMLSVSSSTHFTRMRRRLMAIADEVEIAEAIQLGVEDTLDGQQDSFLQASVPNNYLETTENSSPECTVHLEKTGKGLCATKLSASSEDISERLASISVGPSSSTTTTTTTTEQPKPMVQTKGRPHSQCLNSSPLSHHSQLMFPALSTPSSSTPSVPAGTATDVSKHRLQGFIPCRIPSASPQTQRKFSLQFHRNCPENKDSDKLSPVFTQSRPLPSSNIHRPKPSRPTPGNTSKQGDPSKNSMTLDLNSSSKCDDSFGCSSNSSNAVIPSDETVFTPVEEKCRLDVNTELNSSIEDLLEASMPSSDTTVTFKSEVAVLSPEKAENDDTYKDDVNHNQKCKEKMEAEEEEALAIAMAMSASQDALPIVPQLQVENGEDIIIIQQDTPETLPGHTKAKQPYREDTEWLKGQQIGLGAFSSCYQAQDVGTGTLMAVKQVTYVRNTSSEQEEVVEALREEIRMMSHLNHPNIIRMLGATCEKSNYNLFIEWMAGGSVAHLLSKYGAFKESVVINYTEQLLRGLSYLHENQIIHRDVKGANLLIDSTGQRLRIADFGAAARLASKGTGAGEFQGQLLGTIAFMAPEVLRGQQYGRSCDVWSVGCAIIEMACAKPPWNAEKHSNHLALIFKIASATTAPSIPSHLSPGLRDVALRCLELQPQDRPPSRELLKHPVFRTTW

IGF1R = target: T27, IGF1R (Homo sapiens, UniProt P08069)
T27 construct: DNA label (qPCR read-out); purchased KINOMEscan (DiscoveRx) ScanMAX panel

SGK = target: T28, SGK (Homo sapiens, UniProt O00141)
T28 construct: purchased DiscoveRx (KINOMEscan scanMAX panel)

PKAC-alpha = target: T29, PKAC-alpha (Homo sapiens, UniProt P17612)
T29 construct: DNA label (qPCR read-out); purchased KINOMEscan (DiscoveRx) panel

GAK = target: T30, GAK (Homo sapiens, UniProt O14976)
T30 construct: purchased KINOMEscan (DiscoveRx)

BRAF(V600E) = target: T31, BRAF(V600E) (Homo sapiens, UniProt P15056, V600E)
T31 construct: DNA label (for qPCR read-out); purchased KINOMEscan scanMAX panel (DiscoveRx)

T1 sequence (Q99558 whole entry): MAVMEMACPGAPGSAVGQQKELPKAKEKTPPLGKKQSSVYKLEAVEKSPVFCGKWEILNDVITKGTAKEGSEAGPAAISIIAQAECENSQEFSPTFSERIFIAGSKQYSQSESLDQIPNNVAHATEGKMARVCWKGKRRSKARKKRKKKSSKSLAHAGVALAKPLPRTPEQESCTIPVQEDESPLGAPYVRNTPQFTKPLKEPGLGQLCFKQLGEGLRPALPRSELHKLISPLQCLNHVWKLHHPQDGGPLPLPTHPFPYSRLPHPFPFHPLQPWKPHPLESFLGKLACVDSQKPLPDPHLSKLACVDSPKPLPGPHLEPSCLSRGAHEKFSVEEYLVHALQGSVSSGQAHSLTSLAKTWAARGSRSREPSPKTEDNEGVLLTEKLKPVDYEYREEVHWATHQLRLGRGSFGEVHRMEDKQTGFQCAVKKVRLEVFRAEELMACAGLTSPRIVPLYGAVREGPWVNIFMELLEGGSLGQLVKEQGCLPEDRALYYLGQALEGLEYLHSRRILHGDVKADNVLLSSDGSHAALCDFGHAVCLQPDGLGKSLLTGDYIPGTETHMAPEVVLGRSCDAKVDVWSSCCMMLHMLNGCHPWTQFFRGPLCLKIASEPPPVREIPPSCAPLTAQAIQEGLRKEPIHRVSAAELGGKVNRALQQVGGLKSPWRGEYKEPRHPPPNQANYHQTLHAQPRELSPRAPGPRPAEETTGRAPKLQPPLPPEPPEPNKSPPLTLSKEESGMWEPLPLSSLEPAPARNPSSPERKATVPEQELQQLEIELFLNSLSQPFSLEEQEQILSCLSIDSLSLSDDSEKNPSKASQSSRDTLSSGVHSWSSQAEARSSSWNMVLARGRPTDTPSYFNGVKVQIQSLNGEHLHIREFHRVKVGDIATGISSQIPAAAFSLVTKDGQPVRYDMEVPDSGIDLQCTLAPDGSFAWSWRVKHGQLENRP
Sequence of ABL1(F317I)-phosphorylated (P00519 whole entry F317I): as the sequence (P00519 whole entry F317I) above

With `CN(C)C(=O)c1ccc(N2CCCN(c3ccnc4sc(C(N)=O)c(N)c34)CC2)cc1` [15u, 3-amino-4-(4-(4-(dimethylcarbamoyl)phenyl)-1,4-diazepan-1-yl)thieno[2,3-b]pyridine-2-carboxamide] the “% Ctrl” value [1] was 88 % Ctrl, the “% Ctrl” value (NIK) was 100 % Ctrl and the “% Ctrl” value (PIM3) was 89 % Ctrl. The “% Ctrl” value (PIP5K2C) was 80 % Ctrl, the “% Ctrl” value [2] was 94 % Ctrl and the “% Ctrl” value (PIK3CA(H1047Y)) was 79 % Ctrl. The “% Ctrl” value [3] was 100 % Ctrl, the “% Ctrl” value (AURKB) was 91 % Ctrl and the “% Ctrl” value (BIKE) was 100 % Ctrl. The “% Ctrl” value (MAP4K5) was 100 % Ctrl, the “% Ctrl” value (FRK) was 100 % Ctrl and the “% Ctrl” value (FLT1) was 100 % Ctrl. The “% Ctrl” value (RIPK4) was 89 % Ctrl, the “% Ctrl” value (CAMK2D) was 99 % Ctrl and the “% Ctrl” value (ERBB4) was 85 % Ctrl. The “% Ctrl” value [4] was 100 % Ctrl, the “% Ctrl” value (CASK) was 71 % Ctrl and the “% Ctrl” value (DRAK1) was 100 % Ctrl. The “% Ctrl” value (SRC) was 100 % Ctrl, the “% Ctrl” value (MYLK) was 74 % Ctrl and the “% Ctrl” value (TAK1) was 93 % Ctrl. The “% Ctrl” value (OSR1) was 100 % Ctrl, the “% Ctrl” value [5] was 100 % Ctrl and the “% Ctrl” value [6] was 73 % Ctrl. For the same molecule, the “% Ctrl” value (MAP4K2) was 84 % Ctrl, the “% Ctrl” value (SRMS) was 81 % Ctrl and the “% Ctrl” value (IKK-epsilon) was 100 % Ctrl. For the same molecule, the “% Ctrl” value (TRKC) was 91 % Ctrl, the “% Ctrl” value (MAP3K1) was 84 % Ctrl and the “% Ctrl” value (IGF1R) was 92 % Ctrl. For the same molecule, the “% Ctrl” value (SGK) was 86 % Ctrl, the “% Ctrl” value (PKAC-alpha) was 95 % Ctrl and the “% Ctrl” value (GAK) was 88 % Ctrl. For the same molecule, the “% Ctrl” value (BRAF(V600E)) was 100 % Ctrl.
`[2H]C([2H])([2H])N(C(=O)c1ccc(N2CCCN(c3ccnc4sc(C(N)=O)c(N)c34)CC2)cc1)C([2H])([2H])[2H]` [15u_D6, 3-amino-4-(4-(4-(bis(methyl-d3)carbamoyl)phenyl)-1,4-diazepan-1-yl)thieno[2,3-b]pyridine-2-carboxamide] was tested, and the “% Ctrl” value [1] was 84 % Ctrl, the “% Ctrl” value (NIK) was 97 % Ctrl and the “% Ctrl” value (PIM3) was 98 % Ctrl. The “% Ctrl” value (PIP5K2C) was 64 % Ctrl, the “% Ctrl” value [2] was 79 % Ctrl and the “% Ctrl” value (PIK3CA(H1047Y)) was 100 % Ctrl. For the same molecule, the “% Ctrl” value [3] was 93 % Ctrl, the “% Ctrl” value (AURKB) was 90 % Ctrl and the “% Ctrl” value (BIKE) was 96 % Ctrl. For the same molecule, the “% Ctrl” value (MAP4K5) was 97 % Ctrl, the “% Ctrl” value (FRK) was 97 % Ctrl and the “% Ctrl” value (FLT1) was 100 % Ctrl. The “% Ctrl” value (RIPK4) was 68 % Ctrl, the “% Ctrl” value (CAMK2D) was 92 % Ctrl and the “% Ctrl” value (ERBB4) was 100 % Ctrl. For the same molecule, the “% Ctrl” value [4] was 82 % Ctrl, the “% Ctrl” value (CASK) was 96 % Ctrl and the “% Ctrl” value (DRAK1) was 100 % Ctrl. The “% Ctrl” value (SRC) was 96 % Ctrl, the “% Ctrl” value (MYLK) was 71 % Ctrl and the “% Ctrl” value (TAK1) was 62 % Ctrl. The “% Ctrl” value (OSR1) was 88 % Ctrl, the “% Ctrl” value [5] was 93 % Ctrl and the “% Ctrl” value [6] was 59 % Ctrl. The “% Ctrl” value (MAP4K2) was 66 % Ctrl, the “% Ctrl” value (SRMS) was 93 % Ctrl and the “% Ctrl” value (IKK-epsilon) was 100 % Ctrl. The “% Ctrl” value (TRKC) was 85 % Ctrl, the “% Ctrl” value (MAP3K1) was 90 % Ctrl and the “% Ctrl” value (IGF1R) was 91 % Ctrl. For the same molecule, the “% Ctrl” value (SGK) was 83 % Ctrl, the “% Ctrl” value (PKAC-alpha) was 100 % Ctrl and the “% Ctrl” value (GAK) was 94 % Ctrl. The “% Ctrl” value (BRAF(V600E)) was 84 % Ctrl.

Reference: patent publication US11572369B2, “Bicyclic pyridine compositions and methods of using the same for cancer therapy” (UNIVERSITY OF SOUTH CAROLINA, priority 2019, dated 2023)
